Experimental data: PubChem BioAssay AID270 (DTP/NCI, 2004)
Values joined by “and” are separate entries in the source; they are usually repeats but may differ in a detail not shown here. Equal entries are not always repeated. Inconclusive results are not listed.

System: BDF1 mice, s.c. Lewis lung carcinoma, T/C %
Test: NCI In Vivo Anticancer Drug Screen. Data for tumor model Lewis Lung Carcinoma (subcutaneous) in B6D2F1 (BDF1) mice
Summary of the method: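 Tumor-bearing mice were treated with test compound, and either survival or tumor size was recorded. Values are the treated-group measurement divided by that of the vehicle-treated control group.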

[1] = endpoint: median survival time, dose: 0.1 mg/kg/injection, schedule: Q01DX009 (ip), vehicle: saline, higher = longer survival
[2] = endpoint: median survival time, dose: 0.2 mg/kg/injection, schedule: Q01DX009 (ip), vehicle: saline, higher = longer survival
[3] = endpoint: mean tumor weight, dose: 50.0 mg/kg/injection, schedule: Q01DX011 (sc), vehicle: steriod suspending solution, higher = larger tumour
[4] = endpoint: mean tumor weight, dose: 100.0 mg/kg/injection, schedule: Q01DX011 (sc), vehicle: steriod suspending solution, higher = larger tumour
[5] = endpoint: median survival time, dose: 25.0 mg/kg/injection, schedule: Q01DX009 (ip), vehicle: Klucel (hydroxypropylcellulose) (HPC), higher = longer survival
[6] = endpoint: median survival time, dose: 50.0 mg/kg/injection, schedule: Q01DX009 (ip), vehicle: Klucel (hydroxypropylcellulose) (HPC), higher = longer survival

Q: With `CCN(CC)C(=S)S` as the molecule, how does the T/C (endpoint: mean tumor weight, dose: 125.0 mg/kg/injection, schedule: Q01DX011 (ip), vehicle: saline, higher = larger tumour) read?
A: 86 % of control

Q: What about the T/C (endpoint: median survival time, dose: 125.0 mg/kg/injection, schedule: Q01DX011 (ip), vehicle: saline, higher = longer survival) of the same molecule?
A: 123 % of control and 124 % of control

Q: What about the T/C (endpoint: median survival time, dose: 250.0 mg/kg/injection, schedule: Q01DX011 (ip), vehicle: saline, higher = longer survival) of the same molecule?
A: 112 % of control and 116 % of control

Q: What about the T/C (endpoint: median survival time, dose: 500.0 mg/kg/injection, schedule: Q01DX011 (ip), vehicle: saline, higher = longer survival) of the same molecule?
A: 104 % of control and 105 % of control

Q: And the T/C (endpoint: median survival time, dose: 1000.0 mg/kg/injection, schedule: Q01DX011 (ip), vehicle: saline, higher = longer survival)?
A: 102 % of control and 105 % of control

Q: How did the T/C (endpoint: mean tumor weight, dose: 1.2 mg/kg/injection, schedule: Q01DX011 (ip), vehicle: other, higher = larger tumour) turn out when `CCOc1ccc(Nc2ncnc3nc[nH]c23)cc1CN(CCCl)CCCl` was run?
A: 54 % of control

Q: And the T/C (endpoint: mean tumor weight, dose: 2.3 mg/kg/injection, schedule: Q01DX011 (ip), vehicle: other, higher = larger tumour)?
A: 46 % of control

Q: What does the source list for `CCCN(/C=C/C=C/C=[N+](CCC)CCC)CCC`?
A: T/C (endpoint: median survival time, dose: 0.03 mg/kg/injection, schedule: Q01DX009 (ip), vehicle: saline, higher = longer survival): 114 % of control; T/C (endpoint: median survival time, dose: 0.05 mg/kg/injection, schedule: Q01DX009 (ip), vehicle: saline, higher = longer survival): 100 % of control; T/C [1]: 115 % of control; T/C [2]: 108 % of control

Q: Which T/C (endpoint: mean tumor weight, dose: 37.8 mg/kg/injection, schedule: Q01DX011 (ip), vehicle: carboxymethylcellulose (CMC), higher = larger tumour) does the source give for `SCc1ccccn1` here?
A: 95 % of control

Q: And the T/C (endpoint: mean tumor weight, dose: 75.5 mg/kg/injection, schedule: Q01DX011 (ip), vehicle: carboxymethylcellulose (CMC), higher = larger tumour)?
A: 97 % of control

Q: And the T/C (endpoint: mean tumor weight, dose: 150.0 mg/kg/injection, schedule: Q01DX011 (ip), vehicle: carboxymethylcellulose (CMC), higher = larger tumour)?
A: 90 % of control

Q: Which T/C (endpoint: median survival time, dose: 12.5 mg/kg/injection, schedule: Q01DX009 (ip), vehicle: other, higher = longer survival) does the source give for `Cc1nn(-c2ccccc2)c(N)c1C#N` here?
A: 94 % of control

Q: And the T/C (endpoint: median survival time, dose: 25.0 mg/kg/injection, schedule: Q01DX009 (ip), vehicle: other, higher = longer survival)?
A: 98 % of control and 100 % of control

Q: What about the T/C (endpoint: median survival time, dose: 50.0 mg/kg/injection, schedule: Q01DX009 (ip), vehicle: other, higher = longer survival) of the same molecule?
A: 97 % of control

Q: What about the T/C (endpoint: median survival time, dose: 100.0 mg/kg/injection, schedule: Q01DX009 (ip), vehicle: other, higher = longer survival) of the same molecule?
A: 100 % of control

Q: And the T/C (endpoint: median survival time, dose: 200.0 mg/kg/injection, schedule: Q01DX009 (ip), vehicle: other, higher = longer survival)?
A: 100 % of control

Q: What about the T/C (endpoint: median survival time, dose: 400.0 mg/kg/injection, schedule: Q01DX009 (ip), vehicle: other, higher = longer survival) of the same molecule?
A: 98 % of control

Q: `CCCCC(=O)OCC(=O)[C@]1(O)Cc2c(O)c3c(c(O)c2[C@@H](OC2CC(NC(=O)C(F)(F)F)C(O)C(C)O2)C1)C(=O)c1c(OC)cccc1C3=O` (stereo not given in full) was tested. Which T/C (endpoint: median survival time, dose: 14.0 mg/kg/injection, schedule: Q01DX009 (ip), vehicle: distilled water + Tween-80, higher = longer survival) did it give?
A: 114 % of control

Q: And the T/C (endpoint: median survival time, dose: 20.0 mg/kg/injection, schedule: Q01DX009 (ip), vehicle: distilled water + Tween-80, higher = longer survival)?
A: 123 % of control

Q: And the T/C (endpoint: median survival time, dose: 54.0 mg/kg/injection, schedule: Q01DX001 (ip), vehicle: distilled water + Tween-80, higher = longer survival)?
A: 113 % of control

Q: And the T/C (endpoint: median survival time, dose: 80.0 mg/kg/injection, schedule: Q01DX001 (ip), vehicle: distilled water + Tween-80, higher = longer survival)?
A: 155 % of control

Q: What about the T/C (endpoint: median survival time, dose: 120.0 mg/kg/injection, schedule: Q01DX001 (ip), vehicle: distilled water + Tween-80, higher = longer survival) of the same molecule?
A: 158 % of control

Q: For `CC1CN1c1nc(N2CC2C)nc(N2CC2C)n1` (stereo not given), which T/C (endpoint: median survival time, dose: 1.0 mg/kg/injection, schedule: Q01DX009 (ip), vehicle: saline, higher = longer survival) is on record?
A: 106 % of control

Q: What about the T/C (endpoint: median survival time, dose: 2.0 mg/kg/injection, schedule: Q01DX009 (ip), vehicle: saline, higher = longer survival) of the same molecule?
A: 86 % of control

Q: What about the T/C (endpoint: median survival time, dose: 4.0 mg/kg/injection, schedule: Q01DX009 (ip), vehicle: saline, higher = longer survival) of the same molecule?
A: 105 % of control

Q: And the T/C (endpoint: median survival time, dose: 8.0 mg/kg/injection, schedule: Q01DX009 (ip), vehicle: saline, higher = longer survival)?
A: 105 % of control

Q: For `CC/C(=C(/CC)c1ccc(O)cc1)c1ccc(O)cc1`, which T/C (endpoint: mean tumor weight, dose: 12.5 mg/kg/injection, schedule: Q01DX011 (sc), vehicle: steriod suspending solution, higher = larger tumour) is on record?
A: 38 % of control

Q: What about the T/C (endpoint: mean tumor weight, dose: 25.0 mg/kg/injection, schedule: Q01DX011 (sc), vehicle: steriod suspending solution, higher = larger tumour) of the same molecule?
A: 28 % of control

Q: What about the T/C [3] of the same molecule?
A: 17 % of control

Q: And the T/C [4]?
A: 21 % of control

Q: What about the T/C [5] of the same molecule?
A: 120 % of control

Q: And the T/C [6]?
A: 106 % of control

Q: And the T/C (endpoint: median survival time, dose: 100.0 mg/kg/injection, schedule: Q01DX009 (ip), vehicle: Klucel (hydroxypropylcellulose) (HPC), higher = longer survival)?
A: 113 % of control

Q: What about the T/C (endpoint: median survival time, dose: 200.0 mg/kg/injection, schedule: Q01DX009 (ip), vehicle: Klucel (hydroxypropylcellulose) (HPC), higher = longer survival) of the same molecule?
A: 124 % of control

Q: How did the T/C (endpoint: mean tumor weight, dose: 1.5 mg/kg/injection, schedule: Q01DX011 (ip), vehicle: saline, higher = larger tumour) turn out when `CC[C@H]1CN2CCc3cc(OC)c(OC)cc3[C@@H]2C[C@@H]1C[C@H]1NCCc2cc(OC)c(OC)cc21` was run?
A: 86 % of control

Q: For `COc1c(OC)c(OC)c(-c2cc(=O)c3c(OC)c(OC)c(OC)c(OC)c3o2)c(OC)c1OC`, which T/C [3] is on record?
A: 97 % of control

Q: What about the T/C [4] of the same molecule?
A: 105 % of control

Q: What about the T/C (endpoint: mean tumor weight, dose: 200.0 mg/kg/injection, schedule: Q01DX011 (sc), vehicle: steriod suspending solution, higher = larger tumour) of the same molecule?
A: 97 % of control

Q: What about the T/C (endpoint: mean tumor weight, dose: 400.0 mg/kg/injection, schedule: Q01DX011 (sc), vehicle: steriod suspending solution, higher = larger tumour) of the same molecule?
A: 83 % of control

Q: `COc1cc2c(cc1Oc1c(Oc3c(O)c(OC)cc4c3C(CC(C)C)N(C)CC4)c(OC)cc3c1C(CC(C)C)N(C)CC3)C(CC(C)C)N(C)CC2` (stereo not given) was tested. Which T/C (endpoint: median survival time, dose: 12.5 mg/kg/injection, schedule: Q01DX009 (ip), vehicle: Klucel (hydroxypropylcellulose) (HPC), higher = longer survival) did it give?
A: 92 % of control

Q: What about the T/C [5] of the same molecule?
A: 98 % of control

Q: And the T/C [6]?
A: 88 % of control

Q: Which results are given for `C=C1C(C)C2C(Cc3ccccc3)NC(=O)C23C(OC(C)=O)C=CC(C)(O)C(=O)C(C)C/C=C/C3C1O` (stereo not given)?
A: T/C (endpoint: median survival time, dose: 0.31 mg/kg/injection, schedule: Q01DX009 (ip), vehicle: Klucel (hydroxypropylcellulose) (HPC), higher = longer survival): 121 % of control; T/C (endpoint: median survival time, dose: 0.62 mg/kg/injection, schedule: Q01DX009 (ip), vehicle: Klucel (hydroxypropylcellulose) (HPC), higher = longer survival): 124 % of control; T/C (endpoint: median survival time, dose: 1.25 mg/kg/injection, schedule: Q01DX009 (ip), vehicle: Klucel (hydroxypropylcellulose) (HPC), higher = longer survival): 110 % of control; T/C (endpoint: median survival time, dose: 2.5 mg/kg/injection, schedule: Q01DX009 (ip), vehicle: Klucel (hydroxypropylcellulose) (HPC), higher = longer survival): 118 % of control; T/C (endpoint: median survival time, dose: 5.0 mg/kg/injection, schedule: Q01DX009 (ip), vehicle: Klucel (hydroxypropylcellulose) (HPC), higher = longer survival): 109 % of control

Q: How did the T/C (endpoint: median survival time, dose: 0.37 mg/kg/injection, schedule: Q01DX009 (ip), vehicle: saline, higher = longer survival) turn out when `CCNC1=C(N2CC2)C(=O)C(NCC)=C(N2CC2)C1=O` was run?
A: 115 % of control

Q: What about the T/C (endpoint: median survival time, dose: 0.75 mg/kg/injection, schedule: Q01DX009 (ip), vehicle: saline, higher = longer survival) of the same molecule?
A: 121 % of control

Q: What does the source list for `N#CCCN(Cc1ccccc1)C(N)=O`?
A: T/C (endpoint: mean tumor weight, dose: 0.5 mg/kg/injection, schedule: Q01DX011 (ip), vehicle: other, higher = larger tumour): 73 % of control; T/C (endpoint: mean tumor weight, dose: 1.0 mg/kg/injection, schedule: Q01DX011 (ip), vehicle: other, higher = larger tumour): 68 % of control; T/C (endpoint: mean tumor weight, dose: 2.0 mg/kg/injection, schedule: Q01DX011 (ip), vehicle: other, higher = larger tumour): 48 % of control; T/C (endpoint: mean tumor weight, dose: 4.0 mg/kg/injection, schedule: Q01DX011 (ip), vehicle: other, higher = larger tumour): 55 % of control

Q: `C=C(C)C12OC3(c4ccccc4)OC1C1C4OC4(CO)C(O)C4(O)C(=O)C(C)=CC4C1(O3)C(C)C2OC(=O)c1ccccc1` (stereo not given) was tested. Which T/C [1] did it give?
A: 100 % of control

Q: And the T/C [2]?
A: 100 % of control

Q: And the T/C (endpoint: median survival time, dose: 0.4 mg/kg/injection, schedule: Q01DX009 (ip), vehicle: saline, higher = longer survival)?
A: 100 % of control

Q: What about the T/C (endpoint: median survival time, dose: 0.8 mg/kg/injection, schedule: Q01DX009 (ip), vehicle: saline, higher = longer survival) of the same molecule?
A: 94 % of control
